From paper PMC4513211, “Inhibition of voltage-gated sodium channels by sumatriptan bioisosteres” (Frontiers in Pharmacology, 2015)

Experiments:
hNav1.4 [1] = target: T1, hNav1.4 (Homo sapiens, UniProt P35499); assay: whole-cell patch clamp, peak INa; format: cell-based; conditions: read-out: 0.1 Hz / IC50
T1 construct: gene SCN4A
From the text: (§1) whole-cell patch clamp, peak INa on hNav1.4

hNav1.4 [2] = target: T2, hNav1.4 (Homo sapiens, UniProt P35499, F1586C); assay: whole-cell patch clamp, peak INa; format: cell-based; conditions: read-out: 0.1 Hz / IC50
T2 construct: gene SCN4A
T2 sequence (P35499 whole entry F1586C): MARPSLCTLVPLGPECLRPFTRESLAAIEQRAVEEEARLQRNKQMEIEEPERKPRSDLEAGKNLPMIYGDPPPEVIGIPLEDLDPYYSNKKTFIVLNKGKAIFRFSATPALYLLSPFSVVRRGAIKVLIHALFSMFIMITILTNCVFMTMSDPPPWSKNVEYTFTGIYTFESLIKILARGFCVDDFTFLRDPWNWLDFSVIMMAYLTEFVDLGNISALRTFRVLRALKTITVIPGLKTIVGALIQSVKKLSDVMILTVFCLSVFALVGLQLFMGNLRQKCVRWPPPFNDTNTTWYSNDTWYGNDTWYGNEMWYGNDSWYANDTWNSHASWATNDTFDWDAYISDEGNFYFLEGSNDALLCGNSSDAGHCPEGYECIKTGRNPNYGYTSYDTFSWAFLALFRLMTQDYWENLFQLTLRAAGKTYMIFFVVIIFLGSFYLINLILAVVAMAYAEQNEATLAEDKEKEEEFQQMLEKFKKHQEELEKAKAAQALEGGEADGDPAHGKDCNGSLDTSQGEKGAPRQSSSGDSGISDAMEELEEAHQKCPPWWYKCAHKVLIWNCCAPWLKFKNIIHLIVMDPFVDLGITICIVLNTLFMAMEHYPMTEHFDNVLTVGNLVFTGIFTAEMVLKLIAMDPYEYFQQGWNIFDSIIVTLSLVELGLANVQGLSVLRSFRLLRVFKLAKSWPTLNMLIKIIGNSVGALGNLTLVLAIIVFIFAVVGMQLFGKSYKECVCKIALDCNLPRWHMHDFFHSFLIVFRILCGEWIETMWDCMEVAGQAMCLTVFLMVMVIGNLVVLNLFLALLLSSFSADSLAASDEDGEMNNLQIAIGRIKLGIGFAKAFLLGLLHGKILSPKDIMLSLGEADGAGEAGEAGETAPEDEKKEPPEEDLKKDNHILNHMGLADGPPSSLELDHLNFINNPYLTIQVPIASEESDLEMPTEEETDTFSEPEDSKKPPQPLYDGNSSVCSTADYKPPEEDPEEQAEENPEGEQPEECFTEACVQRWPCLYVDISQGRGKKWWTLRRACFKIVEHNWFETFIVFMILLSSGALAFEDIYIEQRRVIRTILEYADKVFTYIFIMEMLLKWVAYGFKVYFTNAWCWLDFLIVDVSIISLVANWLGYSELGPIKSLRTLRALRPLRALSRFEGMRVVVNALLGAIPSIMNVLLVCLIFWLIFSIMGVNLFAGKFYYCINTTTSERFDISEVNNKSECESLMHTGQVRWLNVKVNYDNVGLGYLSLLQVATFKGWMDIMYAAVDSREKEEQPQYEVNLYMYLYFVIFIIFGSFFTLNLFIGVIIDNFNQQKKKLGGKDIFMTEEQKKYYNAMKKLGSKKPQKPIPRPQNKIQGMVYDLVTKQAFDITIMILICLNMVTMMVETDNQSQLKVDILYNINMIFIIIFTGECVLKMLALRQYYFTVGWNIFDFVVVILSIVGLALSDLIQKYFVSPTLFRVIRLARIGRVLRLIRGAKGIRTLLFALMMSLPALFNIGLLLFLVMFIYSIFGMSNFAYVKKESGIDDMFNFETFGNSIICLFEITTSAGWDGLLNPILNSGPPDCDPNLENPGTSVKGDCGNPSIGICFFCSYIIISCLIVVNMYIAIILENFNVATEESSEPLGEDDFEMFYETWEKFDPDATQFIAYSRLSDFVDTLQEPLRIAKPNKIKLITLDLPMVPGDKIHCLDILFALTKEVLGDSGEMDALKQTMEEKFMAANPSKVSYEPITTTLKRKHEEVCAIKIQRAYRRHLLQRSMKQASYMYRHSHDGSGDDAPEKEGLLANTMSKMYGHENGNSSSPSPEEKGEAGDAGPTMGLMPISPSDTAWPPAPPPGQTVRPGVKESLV
From the text: as §1

T1 sequence (P35499 whole entry): as the sequence (P35499 whole entry F1586C) above, with C1586F counted along it

IC50 (hNav1.4 [1]): 51 ± 2 µM
IC50 (hNav1.4 [2]): 215 ± 5 µM
SMILES: CNC[C@H](C)Oc1cccc2ccccc12 [(S)-22b]
